Source: paper PMC6748986, “Potent modulation of the CepR quorum sensing receptor and virulence in a Burkholderia cepacia complex member using non-native lactone ligands” (Scientific Reports, 2019)
Substitutions are numbered along the chain they refer to.

Key:
[1] = tested on: CepR; set-up: method as in PMID 15978077; conditions: at concentrations greater than 1 μM; cited from earlier work
[2] = target: T1, CepR (Burkholderia cenocepacia, UniProt B4EMD0); assay: CepR agonism in E. coli β-galactosidase reporter (Ec-reporter) JLD271 [pJN105-cepR + pSC11-cepI]; assay type: cell-based, B. cenocepacia; conditions: for Act%: Table S2, Ec-reporter, screening conc. 100 μM
T1 sequence (B4EMD0 1-239): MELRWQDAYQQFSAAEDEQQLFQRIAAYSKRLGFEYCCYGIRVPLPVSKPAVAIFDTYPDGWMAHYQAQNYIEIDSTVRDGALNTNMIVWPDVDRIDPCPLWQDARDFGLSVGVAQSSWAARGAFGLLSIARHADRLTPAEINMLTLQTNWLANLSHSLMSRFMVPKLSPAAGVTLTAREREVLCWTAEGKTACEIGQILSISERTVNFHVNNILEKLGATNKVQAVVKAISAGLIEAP
Procedure, shortened: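 E. coli JLD271 (ΔsdiA) carrying arabinose-inducible CepR (27 mM L-arabinose) and cepI-lacZ fusion, grown 4 h with compound; β-galactosidase measured by CPRG cleavage at 37 °C (~30 min), normalized to OD600. Agonism compared with C8-AHL at 100 μM; screen at 100 μM or solubility limit, then dose-response; ≥3 trials.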

[3] = target: T1, CepR; assay: CepR antagonism in E. coli β-galactosidase reporter (Ec-reporter), competition against C8-AHL; assay type: cell-based, B. cenocepacia; conditions: against 10 nM C8-AHL; for IC50 / Maximal Inhibition (%): Ec-reporter; for Inh% (100-Act%): Table S3, Ec-reporter, screening conc. 100 μM
Procedure, shortened: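 CepR antagonism was measured in E. coli JLD271 (∆sdiA) carrying pJN105-cepR, which expresses B. cenocepacia CepR from an arabinose-inducible pBAD promoter, and pSC11-cepI, which fuses lacZ to the cepI promoter. Induced cells were grown 4 h with compound and 10 nM C8-AHL. β-Galactosidase activity was then read by CPRG cleavage at 37 °C after Z Buffer permeabilization.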

[4] = target: T2, CepR (Burkholderia multivorans, UniProt Q93PF7); assay: CepR antagonism in B. multivorans cepI::lacZ reporter (Bm-reporter), competition against C8-AHL; assay type: cell-based; conditions: for Maximal Inhibition (%): Bm-reporter, against 5 nM C8-AHL; for Inh% (100-Act%): screening conc. 100 μM
T2 sequence (Q93PF7 1-239): T1 sequence (B4EMD0 1-239) with W5R, A51S, Q69H, N84S, R95Q, D97A
From the text: (§1) We next sought to assess if the CepR modulators identified in the Ec-reporter maintained their activities in a member of the Bcc. For these studies, we generated a B. multivorans cepI::lacZ reporter organism (Bm-reporter) using standard allelic exchange methods (see Methods). Along with B. cenocepacia, B. multivorans is one of the most commonly isolated Bcc members[6],[44]. We note that small molecules must contend with a different cellular environment in the native organism relative to E. coli[48]; however, as both CepR and the cepI promoter are highly conserved among Bcc species (Fig. S3), we reasoned that the majority of compounds identified in the Ec-reporter (containing B. cenocepacia versions of the cepI promoter and the cepR gene) would maintain their relative activity profiles in CepR in B. multivorans. […] Similar to the Ec-reporter, CepR binding to the cepI promoter then induces β-galactosidase production, allowing for the quantitation of CepR activity. Using the Bm-reporter organism, we observed robust activity for CepR in response to C8-AHL (EC50 = 0.7 nM, Table 3).
(§2) The B. multivorans cepI::lacZ strain was used to obtain dose-response data for CepR in response to synthetic AHLs. Overnight cultures of B. multivorans cepI::lacZ were grown in LB medium at 37 °C with shaking (225 rpm). Aliquots (200 μL) of a 1:10 dilution of this overnight culture were plated into 96-well plates containing varying concentrations of compound, and then grown for 4 h at 37 °C with shaking (225 rpm). β-galactosidase production was measured as described above for E. coli, with the following changes: permeabilized cells were incubated at 25 °C with substrate CPRG for ~10 min until positive control wells developed a deep red color. For agonism assays, synthetic compound was screened alongside and compared to the native ligand, C8-AHL (100 μM). For antagonism assays, the concentration of native ligand utilized was 5 nM (approximately equal to twice its EC50 value).

[5] = target: T2, CepR; assay: CepR agonism in B. multivorans cepI::lacZ reporter (Bm-reporter); assay type: cell-based; conditions: Table S4, Bm-reporter; screening conc. 100 μM
From the text: as §1, §2

Row | Structure (SMILES) | Effect on CepR [1] | EC50 ([2]; Ec-reporter, agonism dose-response) | Maximal Activation (%) ([2]; Ec-reporter, activity for 100 μM C8-AHL set to 100%, error ±10%) | Act% [2] | IC50 [3] | Maximal Inhibition (%) [3] | Maximal Inhibition (%) [4] | Inh% (100-Act%) [3] | Act% [5] | IC50 ([4]; Table S5, Bm-reporter, read-out: IC50) | Inh% (100-Act%) ([4]; Table S5, Bm-reporter)
1 | C#CCCCC(=O)NC1CCOC1=O (stereo not drawn) [5-hexynoyl-HL] | slight inhibitory effects | – | – | – | – | – | – | – | – | – | –
2 | CCCCCC(=O)N[C@H]1CCOC1=O [Compound C6-AHL, hexanoyl L-homoserine lactone, reference compound] | slight inhibitory effects | ≥ 20 µM | 87% | 87% | 7.5 µM | 83% | 20% | – | – | – | –
3 | O=C(Cc1cccc(I)c1)N[C@H]1CCOC1=O [Compound C11] | – | – | – | 43% | – | – | – | 27% | 2.3% | 1.6 µM | 80%
4 | O=C(Cc1ccc(F)c(C(F)(F)F)c1)N[C@H]1CCOC1=O [Compound E10] | – | – | – | 13% | 0.43 µM | 79% | 21% | – | 11% | – | –
5 | CCCCCCCCCC(=O)CC(=O)Nc1ccccc1O [Control 14, reference compound] | – | – | – | 30% | – | – | – | 30% | – | – | 25%
6 | O=C(Nc1ccccc1NC(=O)c1cccc(Cl)c1)c1cccc(Cl)c1 [TP-5, reference compound] | – | – | – | 0.4% | – | – | – | 24% | – | – | 15%
